Values of other authors, collected in patent US11007171B2, “Treatment and prevention of joint disorders” (Summit Innovation Labs, LLC, priority 2017, dated 2021).
Each block holds one compound with its values, some of them ahead of it.

Tests used:
[1] = system: 23 fungi strains including Candida species; conditions: fairly low concentration
P38 MAPK = system: P38 MAPK; set-up: key: ↓: Downregulate Inducers of arthritis
NF-κB = system: NF-κB; set-up: key: ↓: Downregulate Inducers of arthritis
VEGF = system: VEGF; set-up: key: ↓: Downregulate Inducers of arthritis
Runx2 = system: Runx2; set-up: key: ↓: Downregulate Inducers of arthritis
[2] = system: Human Chondrocytes Treated with Hydrogen Peroxide or Growth-Related Oncogene a
[3] = system: Collagen induced rheumatoid arthritis; conditions: quercetin supplementation
[4] = doses of a few grams a day in either humans or animals
HIF-2α = system: HIF-2α; set-up: key: ↓: Downregulate Inducers of arthritis
[5] = system: acute antigen-induced arthritis model
mice fed high fat diet = conditions: oral
[6] = system: pigs with the equivalent of human metabolic syndrome
[7] = system: advanced glycation end products stimulated chondrocytes
[8] = system: Human Articular Cartilage and Chondrosarcoma Cells
Bax = system: Bax; set-up: key: ↓: Downregulate Inducers of arthritis
AP1 = system: AP1; set-up: key: ↓: Downregulate Inducers of arthritis
RA = conditions: by suppressing IL-1β, TNF-α, NF-κB, COX2 and PGE2, MMPs, and arthritis index through induction of SIRT1
[9] = system: rheumatoid arthritis synovial fibroblast (RASF)
male C57BL/6J mice = conditions: 0.4% (w/w), 4-8 week-old male C57BL/6J mice
mTOR = mTOR (Homo sapiens, UniProt P42345); set-up: key: ↓: Downregulate Inducers of arthritis
[10] = system: OA cartilage of animal model and IL-1β treated human chondrocytes; conditions: resveratrol injection
[11] = system: osteoarthritis chondrocytes
C57BL/6 mice = conditions: local intra-articular injection
FGF = system: FGF; set-up: key: ↓: Downregulate Inducers of arthritis
[12] = system: rats fed a high cholesterol diet
[13] = compared with vitamin E
[14] = system: Porphyromonas gingivalis, Prevotella gingivalis, and Actinobacillus actinomycetemcomitans; conditions: periodontopathic microorganisms
[15] = system: high fat diet-induced obese mice; conditions: compared with controls
[16] = in vivo
cartilage = conditions: by inhibiting iNOS expression
[17] = system: experimental osteoarthritis; conditions: intraarticular magnesium sulfate (MgSO4)
NMDAR = system: NMDAR; set-up: key: ↓: Downregulate Inducers of arthritis
[18] = system: human bone marrow-derived mesenchymal stem cells (hBMSCs); conditions: especially at a concentration of 5 μM
[19] = system: rabbit articular chondrocytes; conditions: rabbit articular chondrocytes in vitro
[20] = after 4 weeks, 500 mg/day

Compound: COc1cc(/C=C/C(=O)CC(=O)/C=C/c2ccc(O)c(OC)c2)ccc1O [Curcumin, (1E,6E)-1,7-Bis(4-hydroxy-3-methoxyphenyl)-1,6-heptadiene-3,5-dione]
antifungal activity [1]: potent antifungal activity | adhesion of Candida species to human buccal epithelial cells (Candida species): inhibitory effect | IL-1β induced chondrocytes apoptosis (chondrocytes): Inhibited IL-1β induced chondrocytes apoptosis, by suppressing caspase-3 | Downregulate P38 MAPK (P38 MAPK): ↓ | Downregulate NF-κB (NF-κB): ↓

Compound: OCCc1ccc(O)c(O)c1 [Hydroxytyrosol, 4-(2-Hydroxyethyl)-1,2-benzenediol]
Downregulate VEGF (VEGF): ↓ | Downregulate Runx2 (Runx2): ↓ | level of SIRT1 mRNA ([2]; in the presence of GROα): HT treatment significantly increased the level of SIRT1 mRNA in the presence of | chondrocytes apoptosis, DNA damage ([2]; pretreatment of chondrocytes, oxidative stress or GROα): Pretreatment of chondrocytes with HT (a) prevented chondrocytes apoptosis, DNA

Compound: O=c1c(O)c(-c2ccc(O)c(O)c2)oc2cc(O)cc(O)c12 [Quercetin, 3,5,7,3′,4′-pentahydroxyflavone]
NF-κB activity, IL-1β, CRP, monocyte chemotactic protein-1 (rat adjuvant arthritis): Quercetin supplementation significantly reduced NF-κB activity, IL-1β, CRP, | plasma antioxidant activity (rat adjuvant arthritis): monocyte chemotactic protein-1, and increased plasma antioxidant activity [Gardi C, | progression of RA (arthritis score and paw swelling), elastase activity, oxidative stress and NO expression [3]: Quercetin supplementation (a) reduced progression of RA as indicated by a reduction | expression of genes associated with mitochondrial biogenesis (PGC-1a and SIRT1), mitochondrial DNA content, and cytochrome-C concentration (mice; 7 days, 12.5 or 25 mg/kg b.w., muscle and brain, mice): increases | maximal endurance capacity (time to fatigue) and voluntary wheel-running activity (mice; treadmill running test, compared with placebo-treated mice): significantly increased | Downregulate NF-κB (NF-κB): ↓ | side effects [4]: no side effects

Downregulate mTOR (mTOR): ↓
Compound: Oc1ccc(/C=C/c2cc(O)cc(O)c2)cc1 [Resveratrol, 3,5,4′-trihydroxy-trans-stilbene]
Downregulate HIF-2α (HIF-2α): ↓ | knee swelling, histological score of synovial tissue, proliferating cell nuclear antigen (anti-PCNA), and proteins expressed by circulating microphages (CD 68, CD3) [5]: Resveratrol significantly reduced knee swelling, histological score of synovial tissue, | OA severity (mice fed high fat diet): Significantly reduced | chondrocyte apoptosis (mice fed high fat diet): inhibited | collagen type II expression (mice fed high fat diet): increased | type II collagen and proteoglycan degradation (mice fed high fat diet): prevented | body mass indices, serum cholesterol and C-reactive protein [6]: lowered | glucose tolerance and endothelial function [6]: improved | AGEs induced degradation of collagen type II [7]: production of NO and PGE2, prevented AGEs induced degradation of collagen type | AGEs induced expression and activity of MMP-13 [7]: II, and decreased AGEs induced expression and activity of MMP-13 by down | FGF and IL-1β induced chondrocytes apoptosis, expression of cartilage degrading proteases (MMPs and aggrecanases) and decrease in proteoglycan biosynthesis [8]: Significantly reduced fibroblast growth factor (FGF) and IL-1β induced chondrocytes | Downregulate Bax (Bax): ↓ | Downregulate AP1 (AP1): ↓ | RA development and progression (RA): Resveratrol inhibited RA development and progression by suppressing inflammation | apoptosis of rheumatoid arthritis synovial fibroblast (RASF) [9]: Resveratrol induced apoptosis of rheumatoid arthritis synovial fibroblast (RASF) | aerobic capacity (male C57BL/6J mice): significantly increased | Downregulate NF-κB (NF-κB): ↓ | expression of collagen type II [10]: maintained | expression of iNOS and MMP-13 [10]: reduced | chondrocyte apoptosis [11]: Reduced chondrocyte apoptosis mediated by (a) an inhibition of proapoptotic protein | AC degradation (C57BL/6 mice): delayed | OA symptoms (C57BL/6 mice): reduced | matrix synthesis (C57BL/6 mice): increased | Downregulate FGF (FGF): ↓

Compound: COc1ccc([C@@H]2CC(=O)c3c(O)cc(O[C@@H]4O[C@H](CO[C@@H]5O[C@@H](C)[C@H](O)[C@@H](O)[C@H]5O)[C@@H](O)[C@H](O)[C@H]4O)cc3O2)cc1O [hesperidin, hesperitin-7-O-rutinoside]
inhibition of liver cholesterol biosynthesis [12]: 28.3% | inhibition of the esterification of hepatic cholesterol [12]: 23.7%

Compound: C=CCc1ccc(O)c(-c2ccc(O)c(CC=C)c2)c1 [honokiol]
antioxidant activity, potency relative to vitamin E [13]: 1000 times | antimicrobial activity [14]: significant antimicrobial activity | glucose tolerance [15]: improved | plasma total cholesterol and glucose levels [15]: significantly reduced | cytotoxic effect on human gingival cells (human gingival cells): relatively low cytotoxic effect

Compound: C=CCc1ccc(O)c(-c2cc(CC=C)ccc2O)c1 [magnolol, 4-Allyl-2-(5-allyl-2-hydroxy-phenyl)phenol]
antioxidant activity, potency relative to vitamin E [13]: 1000 times | fasting blood glucose and plasma insulin levels (type 2 diabetic rats): reduced | antimicrobial activity [14]: significant antimicrobial activity | oral bioavailability [16]: 4-5% | glucose tolerance [15]: improved | plasma total cholesterol and glucose levels [15]: significantly reduced | cytotoxic effect on human gingival cells (human gingival cells): relatively low cytotoxic effect

Compound: Oc1cc(O)c2c(c1)O[C@H](c1ccc(O)c(O)c1)[C@@H](O)[C@@H]2c1c(O)cc(O)c2c1O[C@H](c1ccc(O)c(O)c1)[C@@H](O)C2 [procyanidin B3]
OA progression (OA animal model): Pcy and components of Pcy (procyanidin B2 and B3) slowed OA progression, | cartilage degradation and heterotopic ossification (cartilage): Pcy B3 prevents cartilage degradation and heterotopic ossification (bone formation in

Compound: (−)-epicatechin-(4β→8)-(−)-epicatechin [procyanidin B2]
OA progression (OA animal model): Pcy and components of Pcy (procyanidin B2 and B3) slowed OA progression,

Compound: Magnesium
cartilage degradation and chondrocyte apoptosis [17]: Reduced cartilage degradation and chondrocyte apoptosis deposition by blocking | Downregulate NMDAR (NMDAR): ↓ | Downregulate NF-κB (NF-κB): ↓

Compound: epigallocatechin-3-gallate [EGCG]
IL-1β-induced IL-6 and IL-8 synthesis (RASF): Inhibited IL-1β-induced IL-6 and IL-8 synthesis in RASF via suppressing | AGEs induced expression of TNF-α and MMP-13 (OA chondrocytes): Significantly decreased AGEs induced expression of TNF-α and MMP-13 in OA | Downregulate P38 MAPK (P38 MAPK): ↓ | osteogenic effect on hBMSCs [18]: strong stimulatory effect | Downregulate AP1 (AP1): ↓ | chondrocyte proliferation, production of collagen type II and aggrecan [19]: Enhanced chondrocyte proliferation, production of collagen type II and aggrecan. | Downregulate NF-κB (NF-κB): ↓

Compound: glucosyl-hesperidin [G-Hesperidin]
triglyceride level [20]: marked decrease
